Results from US12077503B2, “Substituted cyclic amides and their use as herbicides” (FMC CORPORATION, priority 2015, dated 2024).

How the values were obtained:
Assay type in all cases: in vivo
[1] = system: barnyardgrass (Echinochloa crus-galli); assay: Test A postemergence; settings: Echinochloa crus-galli, post-emergence, 240 h, Postemergence, read-out: Plant response rating, Barnyardgrass; for pest or weed control at 125 g/ha: 125 g ai/ha, visual injury after approx. 10 d, 0 to 100 scale, 0 no effect, 100 complete control; for pest or weed control at 500 g/ha: 500 g ai/ha, visual injury, 0 to 100 scale (0 no effect, 100 complete control), approx. 10 d
Outline: (§1)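 Preemergence directed soil spray on seeded pots, or postemergence application to plants 2–10 cm, one- to two-leaf. Solvent mixture non-phytotoxic, with surfactant. Scored ~10 d later, visually, 0–100 vs untreated.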

[2] = system: giant foxtail (Setaria faberii); assay: Test A postemergence; settings: Setaria faberi, post-emergence, 240 h, Postemergence, read-out: Plant response rating, Foxtail, Giant; for pest or weed control at 125 g/ha: 125 g ai/ha, visual injury after approx. 10 d, 0 to 100 scale, 0 no effect, 100 complete control; for pest or weed control at 500 g/ha: 500 g ai/ha, visual injury, 0 to 100 scale (0 no effect, 100 complete control), approx. 10 d
Outline: as §1

[3] = system: Galium (catchweed bedstraw, Galium aparine); assay: Test A postemergence; settings: Galium, post-emergence, 240 h, Postemergence, read-out: Plant response rating, Galium; for pest or weed control at 125 g/ha: 125 g ai/ha, visual injury after approx. 10 d, 0 to 100 scale, 0 no effect, 100 complete control; for pest or weed control at 500 g/ha: 500 g ai/ha, visual injury, 0 to 100 scale (0 no effect, 100 complete control), approx. 10 d
Outline: as §1

[4] = system: wheat (Triticum aestivum); assay: Test A postemergence; settings: Triticum aestivum, post-emergence, 240 h, Postemergence, read-out: Plant response rating, Wheat; for plant injury at 125 g/ha: 125 g ai/ha, visual injury after approx. 10 d, 0 to 100 scale, 0 no effect, 100 complete control; for plant injury at 500 g/ha: 500 g ai/ha, visual injury, 0 to 100 scale (0 no effect, 100 complete control), approx. 10 d
Outline: as §1

rice (Oryra sativa) = assay: Test B flooded paddy test; settings: Oryza sativa, 360 h, Flood, 250 g ai/ha; visually evaluated after 13 to 15 d; read-out: Plant response rating, Rice (0 to 100 scale where 0 is no effect and 100 is complete control)
Outline: (§2)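 Flooding to 3 cm over soil accompanied treatment, which consisted of adding compound to the standing water around 2-leaf plants; depth was then maintained. Visual assessment versus controls followed at 13 to 15 d (scale 0–100, 0 meaning no effect).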

[5] = system: barnyardgrass (Echinochloa crus-galli); assay: Test B flooded paddy test; settings: Echinochloa crus-galli, 360 h, Flood, 250 g ai/ha; visually evaluated after 13 to 15 d; read-out: Plant response rating, Barnyardgrass (0 to 100 scale where 0 is no effect and 100 is complete control)
Outline: as §2

[6] = system: sedge, umbrella (small-flower umbrella sedge, Cyperus difformis); assay: Test B flooded paddy test; settings: Cyperus difformis, 360 h, Flood, 250 g ai/ha; visually evaluated after 13 to 15 d; read-out: Plant response rating, Sedge, Umbrella (0 to 100 scale where 0 is no effect and 100 is complete control)
Outline: as §2

[7] = system: ducksalad (Heteranthera limosa); assay: Test B flooded paddy test; settings: Heteranthera limosa, 360 h, Flood, 250 g ai/ha; visually evaluated after 13 to 15 d; read-out: Plant response rating, Ducksalad (0 to 100 scale where 0 is no effect and 100 is complete control)
Outline: as §2

[8] = system: ragweed (common ragweed, Ambrosia elatior); assay: Test A preemergence; settings: Ambrosia artemisiifolia, pre-emergence, 240 h, 0 to 100 scale (0 no effect, 100 complete control), read-out: Plant response rating, Ragweed; for pest or weed control at 500 g/ha: 500 g ai/ha, preemergence; for pest or weed control at 125 g/ha: Preemergence, 125 g ai/ha
Outline: as §1

[9] = system: barnyardgrass (Echinochloa crus-galli); assay: Test A preemergence; settings: Echinochloa crus-galli, pre-emergence, 240 h, 0 to 100 scale (0 no effect, 100 complete control), read-out: Plant response rating, Barnyardgrass; for pest or weed control at 500 g/ha: 500 g ai/ha, preemergence; for pest or weed control at 125 g/ha: Preemergence, 125 g ai/ha
Outline: as §1

[10] = system: ryegrass, Italian (Italian ryegrass, Lolium multiflorum); assay: Test A preemergence; settings: Lolium multiflorum, pre-emergence, 240 h, 0 to 100 scale (0 no effect, 100 complete control), read-out: Plant response rating, Ryegrass, Italian; for pest or weed control at 500 g/ha: 500 g ai/ha, preemergence; for pest or weed control at 125 g/ha: Preemergence, 125 g ai/ha
Outline: as §1

[11] = system: giant foxtail (Setaria faberii); assay: Test A preemergence; settings: Setaria faberi, pre-emergence, 240 h, 0 to 100 scale (0 no effect, 100 complete control), read-out: Plant response rating, Foxtail, Giant; for pest or weed control at 500 g/ha: 500 g ai/ha, preemergence; for pest or weed control at 125 g/ha: Preemergence, 125 g ai/ha
Outline: as §1

[12] = system: pigweed (Amaranthus retroflexus); assay: Test A preemergence; settings: Amaranthus retroflexus, pre-emergence, 240 h, 0 to 100 scale (0 no effect, 100 complete control), read-out: Plant response rating, Pigweed; for pest or weed control at 500 g/ha: 500 g ai/ha, preemergence; for pest or weed control at 125 g/ha: Preemergence, 125 g ai/ha
Kochia (Kochia scoparia) = assay: Test A preemergence; settings: Bassia scoparia, pre-emergence, 240 h, 0 to 100 scale (0 no effect, 100 complete control), read-out: Plant response rating, Kochia; for pest or weed control at 500 g/ha: 500 g ai/ha, preemergence; for pest or weed control at 125 g/ha: Preemergence, 125 g ai/ha
Outline: as §1

SMILES	pest or weed control at 125 g/ha [1] [%]	pest or weed control at 500 g/ha [1] [%]	pest or weed control at 125 g/ha [2] [%]	pest or weed control at 500 g/ha [2] [%]	pest or weed control at 125 g/ha [3] [%]	pest or weed control at 500 g/ha [3] [%]	plant injury at 125 g/ha [4] [%]	plant injury at 500 g/ha [4] [%]	pest or weed control at 250 g/ha (rice (Oryra sativa)) [%]	pest or weed control at 250 g/ha [5] [%]	pest or weed control at 250 g/ha [6] [%]	pest or weed control at 250 g/ha [7] [%]	pest or weed control at 500 g/ha [8] [%]	pest or weed control at 125 g/ha [8] [%]	pest or weed control at 500 g/ha [9] [%]	pest or weed control at 125 g/ha [9] [%]	pest or weed control at 500 g/ha [10] [%]	pest or weed control at 125 g/ha [10] [%]	pest or weed control at 500 g/ha [11] [%]	pest or weed control at 125 g/ha [11] [%]	other results
CC(C)c1cccc([C@H]2CN(C)C(=O)[C@@H]2C(=O)Nc2cccc(F)c2F)c1 [Compound 1388]	100	100	90	90	50	50	50	60	0	65	0	80	70	0	100	100	100	90	100	100	pest or weed control at 500 g/ha [12]: 70%; pest or weed control at 125 g/ha [12]: 30%; pest or weed control at 500 g/ha (Kochia (Kochia scoparia)): 90%; pest or weed control at 125 g/ha (Kochia (Kochia scoparia)): 80%
CN1C[C@H](c2cccc(C(F)(F)F)c2)[C@@H](C(=O)Nc2ccc(F)c(F)c2F)C1=O [Compound 1389]	90	100	80	80	60	70	60	70	15	60	0	100	30	0	100	100	90	80	100	100	pest or weed control at 500 g/ha [12]: 80%; pest or weed control at 125 g/ha [12]: 70%; pest or weed control at 500 g/ha (Kochia (Kochia scoparia)): 90%; pest or weed control at 125 g/ha (Kochia (Kochia scoparia)): 70%
O=C1NC[C@H](c2nccc(C(F)(F)F)n2)[C@H]1C(=O)Nc1cccc(F)c1F [Compound 1392]	0	40	0	30	0	0	0	30	0	0	0	30	0	0	60	0	0	0	60	0	pest or weed control at 500 g/ha [12]: 0%; pest or weed control at 125 g/ha [12]: 0%; pest or weed control at 500 g/ha (Kochia (Kochia scoparia)): 0%; pest or weed control at 125 g/ha (Kochia (Kochia scoparia)): 0%
